System: MV-4-11 cells
Test: Gene expression microarray analysis (Affymetrix PrimeView) and GSEA
Type: cell-based, human
Set-up: RFU PODN (11730768_x_at) / Fold change /veh PODN (11730768_x_at) / RFU LINC00158 (11744669_a_at) / Fold change /veh LINC00158 (11744669_a_at) / RFU DUSP10 (11751237_a_at) / Fold change /veh DUSP10 (11751237_a_at) / RFU ID3 (11757404_x_at) / Fold change /veh ID3 (11757404_x_at) / RFU PLEKHG5 (11737974_s_at) / Fold change /veh PLEKHG5 (11737974_s_at) / RFU LRRC4B (11730491_at) / Fold change /veh LRRC4B (11730491_at) / RFU GIMAP4 (11747438_a_at) / Fold change /veh GIMAP4 (11747438_a_at) / RFU KRT8 (11758183_x_at) / Fold change /veh KRT8 (11758183_x_at) / RFU CNN1 (11734310_a_at) / Fold change /veh CNN1 (11734310_a_at) / RFU VPS37D (11726825_at) / Fold change /veh VPS37D (11726825_at) / RFU C10orf10 (11716522_x_at) / Fold change /veh C10orf10 (11716522_x_at) / RFU KIR2DL2 /// KIR2DL4 /// KIR2DL5A /// KIR2DL5B /// KIR2DS1 /// KIR2DS2 /// KIR2DS3 /// KIR2DS4 /// KIR3DL3 /// KIR3DL3 /// KIR3DS1 (11738374_at) / Fold change /veh KIR2DL2 /// KIR2DL4 /// KIR2DL5A /// KIR2DL5B /// KIR2DS1 /// KIR2DS2 /// KIR2DS3 /// KIR2DS4 /// KIR3DL3 /// KIR3DL3 /// KIR3DS1 (11738374_at) / RFU C1QL1 (11718748_at) / Fold change /veh C1QL1 (11718748_at) / RFU TMPRSS4 (11747572_a_at) / Fold change /veh TMPRSS4 (11747572_a_at) / RFU HAMP (11756126_x_at) / Fold change /veh HAMP (11756126_x_at) / RFU RNFT2 (11725882_a_at) / Fold change /veh RNFT2 (11725882_a_at) / RFU NR4A2 (11747474_a_at) / Fold change /veh NR4A2 (11747474_a_at) / RFU ABCC12 (11746883_a_at) / Fold change /veh ABCC12 (11746883_a_at) / RFU TMEM136 (11760407_x_at) / Fold change /veh TMEM136 (11760407_x_at) / RFU CLDN22 /// WWC2 (11732394_at) / Fold change /veh CLDN22 /// WWC2 (11732394_at) / RFU HLA-DPB1 (11760878_x_at) / Fold change /veh HLA-DPB1 (11760878_x_at) / RFU SPINT1 (11716480_a_at) / Fold change /veh SPINT1 (11716480_a_at) / RFU GAP43 (11754022_s_at) / Fold change /veh GAP43 (11754022_s_at) / RFU A4GNT (11735810_at) / Fold change /veh A4GNT (11735810_at) / RFU PRB3 (11715151_x_at) / Fold change /veh PRB3 (11715151_x_at) / RFU TUBB4B (11761932_at) / Fold change /veh TUBB4B (11761932_at) / RFU CAPN14 (11732068_a_at) / Fold change /veh CAPN14 (11732068_a_at) / RFU TMCC2 (11721928_a_at) / Fold change /veh TMCC2 (11721928_a_at) / RFU IRGQ (11745062_a_at) / Fold change /veh IRGQ (11745062_a_at) / RFU FAM174B (11720279_a_at) / Fold change /veh FAM174B (11720279_a_at) / RFU TMPRSS4 (11748680_a_at) / Fold change /veh TMPRSS4 (11748680_a_at) / RFU FAM212B (11763350_a_at) / Fold change /veh FAM212B (11763350_a_at) / RFU PLEKHG5 (11743358_a_at) / Fold change /veh PLEKHG5 (11743358_a_at) / RFU ZSCAN30 (11745921_a_at) / Fold change /veh ZSCAN30 (11745921_a_at) / RFU CMKLR1 (11741424_a_at) / Fold change /veh CMKLR1 (11741424_a_at) / RFU LOC101060620 /// MAPK8IP1 (11723275_at) / Fold change /veh LOC101060620 /// MAPK8IP1 (11723275_at) / RFU SPTSSB (11747773_x_at) / Fold change /veh SPTSSB (11747773_x_at) / RFU PRSS12 (11739890_at) / Fold change /veh PRSS12 (11739890_at) / RFU BIN1 (11741810_x_at) / Fold change /veh BIN1 (11741810_x_at) / RFU WNT11 (11732464_a_at) / Fold change /veh WNT11 (11732464_a_at) / RFU C10orf10 (11716521_a_at) / Fold change /veh C10orf10 (11716521_a_at) / RFU C5orf56 (11738089_at) / Fold change /veh C5orf56 (11738089_at) / RFU CYB561 (11721691_x_at) / Fold change /veh CYB561 (11721691_x_at) / RFU ANKRD19P (11752326_a_at) / Fold change /veh ANKRD19P (11752326_a_at) / RFU OR2T12 /// OR2T33 /// OR2T8 (11738714_s_at) / Fold change /veh OR2T12 /// OR2T33 /// OR2T8 (11738714_s_at) / RFU VCAN (11748164_a_at) / Fold change /veh VCAN (11748164_a_at) / RFU JSRP1 (11732532_at) / Fold change /veh JSRP1 (11732532_at) / RFU KRTAP10-11 (11738290_x_at) / Fold change /veh KRTAP10-11 (11738290_x_at) / RFU MYO3A (11730013_a_at) / Fold change /veh MYO3A (11730013_a_at) / RFU EBF3 (11725865_a_at) / Fold change /veh EBF3 (11725865_a_at) / RFU CAMK2N1 (11719241_x_at) / Fold change /veh CAMK2N1 (11719241_x_at) / RFU C5orf56 (11738088_a_at) / Fold change /veh C5orf56 (11738088_a_at) / RFU OLFML3 (11715873_a_at) / Fold change /veh OLFML3 (11715873_a_at) / RFU LOC100653217 /// NTM (11731650_a_at) / Fold change /veh LOC100653217 /// NTM (11731650_a_at) / RFU MAPK11 (11762145_a_at) / Fold change /veh MAPK11 (11762145_a_at) / RFU FIZ1 (11724087_x_at) / Fold change /veh FIZ1 (11724087_x_at) / RFU OASL (11726364_x_at) / Fold change /veh OASL (11726364_x_at) / RFU SOX15 (11748057_x_at) / Fold change /veh SOX15 (11748057_x_at) / RFU CD79A (11719716_a_at) / Fold change /veh CD79A (11719716_a_at) / RFU HIST1H1D (11736915_at) / Fold change /veh HIST1H1D (11736915_at) / RFU CASKIN2 (11723855_a_at) / Fold change /veh CASKIN2 (11723855_a_at) / RFU LOC730098 (11760151_x_at) / Fold change /veh LOC730098 (11760151_x_at) / RFU OR4N2 (11742367_at) / Fold change /veh OR4N2 (11742367_at) / RFU PRRT2 (11749266_a_at) / Fold change /veh PRRT2 (11749266_a_at) / RFU SNX32 (11753110_a_at) / Fold change /veh SNX32 (11753110_a_at) / RFU CDHR5 (11726645_a_at) / Fold change /veh CDHR5 (11726645_a_at) / RFU RCAN1 (11760418_a_at) / Fold change /veh RCAN1 (11760418_a_at) / RFU FAM167A (11723789_a_at) / Fold change /veh FAM167A (11723789_a_at) / RFU FAM26E (11764081_at) / Fold change /veh FAM26E (11764081_at) / RFU ISYNA1 (11749810_s_at) / Fold change /veh ISYNA1 (11749810_s_at) / RFU ACY1 (11761880_at) / Fold change /veh ACY1 (11761880_at) / RFU 11764098_at / Fold change /veh 11764098_at / RFU SAMD14 (11745864_x_at) / Fold change /veh SAMD14 (11745864_x_at) / RFU NPB (11741838_a_at) / Fold change /veh NPB (11741838_a_at) / RFU TMPRSS6 (11731388_a_at) / Fold change /veh TMPRSS6 (11731388_a_at) / RFU KRTAP10-2 (11738614_at) / Fold change /veh KRTAP10-2 (11738614_at) / RFU ARHGAP8 /// PRR5-ARHGAP8 (11727945_x_at) / Fold change /veh ARHGAP8 /// PRR5-ARHGAP8 (11727945_x_at) / RFU KRTAP5-7 /// NADSYN1 (11734609_at) / Fold change /veh KRTAP5-7 /// NADSYN1 (11734609_at) / RFU RASL12 (11751679_a_at) / Fold change /veh RASL12 (11751679_a_at) / RFU CDKN2B (11736163_a_at) / Fold change /veh CDKN2B (11736163_a_at) / RFU PRF1 (11729649_at) / Fold change /veh PRF1 (11729649_at) / RFU, ZNF638 /// ZNF638-IT1 / Fold change vs veh, ZNF638 /// ZNF638-IT1 / RFU, PANK3 / Fold change vs veh, PANK3 / RFU, SH3YL1 / Fold change vs veh, SH3YL1 / RFU, ZEB2 / Fold change vs veh, ZEB2 / RFU, NRIP1 / Fold change vs veh, NRIP1 / RFU, PTTG1IP / Fold change vs veh, PTTG1IP / RFU, CAPN2 / Fold change vs veh, CAPN2 / RFU, MED14 / Fold change vs veh, MED14 / RFU, SNORA58 / Fold change vs veh, SNORA58 / RFU, C1orf63 / Fold change vs veh, C1orf63 / RFU, LRRFIP1 / Fold change vs veh, LRRFIP1 / RFU, NDUFAF7 / Fold change vs veh, NDUFAF7 / RFU, SLC12A2 / Fold change vs veh, SLC12A2 / RFU, IBTK / Fold change vs veh, IBTK / RFU, ESF1 / Fold change vs veh, ESF1 / Fold change vs veh, TMEM50B / RFU, TAOK1 / Fold change vs veh, TAOK1 / RFU, ACBD3 / Fold change vs veh, ACBD3 / RFU, TMA16 / Fold change vs veh, TMA16 / RFU, RWDD3 / Fold change vs veh, RWDD3 / RFU, BCAT1 / Fold change vs veh, BCAT1 / RFU, EDEM3 / Fold change vs veh, EDEM3 / RFU, TMEM33 / Fold change vs veh, TMEM33 / RFU, WDR75 / Fold change vs veh, WDR75 / RFU, AHCTF1 / Fold change vs veh, AHCTF1 / RFU, TFRC / Fold change vs veh, TFRC / RFU, ZDHHC17 / Fold change vs veh, ZDHHC17 / RFU, NOM1 / Fold change vs veh, NOM1 / RFU, ARL8B / Fold change vs veh, ARL8B / RFU, ZBTB11 / Fold change vs veh, ZBTB11 / RFU, TAMM41 / Fold change vs veh, TAMM41 / RFU, KIAA1704 /// LOC100996395 / Fold change vs veh, KIAA1704 /// LOC100996395 / RFU, ING1 / Fold change vs veh, ING1 / RFU, TRMT61B / Fold change vs veh, TRMT61B / RFU, FUBP3 / Fold change vs veh, FUBP3 / RFU, TP53 / Fold change vs veh, TP53 / RFU, TNKS2 / Fold change vs veh, TNKS2 / RFU, ZFP14 / Fold change vs veh, ZFP14 / RFU, ACTR2 / Fold change vs veh, ACTR2 / RFU, PPP3R1 / Fold change vs veh, PPP3R1 / RFU, PIK3R1 / Fold change vs veh, PIK3R1 / RFU, HNRNPA1 / Fold change vs veh, HNRNPA1 / RFU, RNF170 / Fold change vs veh, RNF170 / RFU, ZNF28 / Fold change vs veh, ZNF28 / RFU, RNGTT / Fold change vs veh, RNGTT / RFU, OGT / Fold change vs veh, OGT / RFU, BRD1 / Fold change vs veh, BRD1 / RFU, MARS / Fold change vs veh, MARS / RFU, ZNF655 / Fold change vs veh, ZNF655 / RFU, FAHD1 / Fold change vs veh, FAHD1 / RFU, BDP1 / Fold change vs veh, BDP1 / RFU, LRRCC1 / Fold change vs veh, LRRCC1 / RFU, ARID1A / Fold change vs veh, ARID1A / RFU, ZNF146 / Fold change vs veh, ZNF146 / RFU, ZNF330 / Fold change vs veh, ZNF330 / RFU, GPN3 / Fold change vs veh, GPN3 / RFU, C9orf123 / Fold change vs veh, C9orf123 / RFU, N4BP2L2 / Fold change vs veh, N4BP2L2 / RFU, ARFIP1 / Fold change vs veh, ARFIP1 / RFU, FAM179B / Fold change vs veh, FAM179B / RFU, BCL10 / Fold change vs veh, BCL10 / RFU, UHRF1BP1L / Fold change vs veh, UHRF1BP1L / RFU, BET1 / Fold change vs veh, BET1 / RFU, CNOT2 / Fold change vs veh, CNOT2 / RFU, ZNF268 / Fold change vs veh, ZNF268 / Fold change vs veh, ZNF507 / RFU, DGCR2 / Fold change vs veh, DGCR2 / RFU, WDSUB1 / Fold change vs veh, WDSUB1 / Fold change vs veh, HSP90B1 /// MIR3652 / RFU, ADSS / Fold change vs veh, ADSS / RFU, GK / Fold change vs veh, GK / RFU, ZNF148 / Fold change vs veh, ZNF148 / RFU, TAF9 / Fold change vs veh, TAF9 / RFU, SLC1A5 / Fold change vs veh, SLC1A5 / RFU, SLMO2 / Fold change vs veh, SLMO2 / RFU, ABCC4 / Fold change vs veh, ABCC4 / RFU, LOC101060439 /// RAP1B / Fold change vs veh, LOC101060439 /// RAP1B / RFU, RFX7 / Fold change vs veh, RFX7 / RFU, GTPBP10 / Fold change vs veh, GTPBP10 / RFU, CNEP1R1 / Fold change vs veh, CNEP1R1 / RFU, BIVM-ERCC5 /// ERCC5 / Fold change vs veh, BIVM-ERCC5 /// ERCC5 / RFU, ILF3 / Fold change vs veh, ILF3 / RFU 11762660_at / Fold change /veh 11762660_at / RFU VCAN (11757783_s_at) / Fold change /veh VCAN (11757783_s_at) / RFU DDX43 (11728927_at) / Fold change /veh DDX43 (11728927_at) / RFU KRT8 (11758188_x_at) / Fold change /veh KRT8 (11758188_x_at) / RFU NKD1 (11759106_at) / Fold change /veh NKD1 (11759106_at) / RFU SRD5A1 (11742802_a_at) / Fold change /veh SRD5A1 (11742802_a_at) / RFU TPSAB1 /// TPSB2 (11721975_s_at) / Fold change /veh TPSAB1 /// TPSB2 (11721975_s_at) / RFU GSTM3 (11746129_a_at) / Fold change /veh GSTM3 (11746129_a_at) / RFU IL23R (11737362_x_at) / Fold change /veh IL23R (11737362_x_at) / RFU TMEM51 (11727254_a_at) / Fold change /veh TMEM51 (11727254_a_at) / RFU PIWIL2 (11732686_x_at) / Fold change /veh PIWIL2 (11732686_x_at) / RFU ORM1 (11744905_x_at) / Fold change /veh ORM1 (11744905_x_at) / RFU CCDC152 (11743942_at) / Fold change /veh CCDC152 (11743942_at) / RFU ECM1 (11717891_a_at) / Fold change /veh ECM1 (11717891_a_at) / RFU IL23R (11748794_a_at) / Fold change /veh IL23R (11748794_a_at) / RFU TNFAIP8L3 (11732012_x_at) / Fold change /veh TNFAIP8L3 (11732012_x_at) / RFU MBOAT4 (11741988_at) / Fold change /veh MBOAT4 (11741988_at) / RFU 11764193_at / Fold change /veh 11764193_at / RFU TMEM53 (11763286_at) / Fold change /veh TMEM53 (11763286_at) / RFU MAGEB2 (11727129_at) / Fold change /veh MAGEB2 (11727129_at) / RFU TMEM200A (11744735_a_at) / Fold change /veh TMEM200A (11744735_a_at) / RFU CCDC152 (11751479_a_at) / Fold change /veh CCDC152 (11751479_a_at) / RFU FAM211A (11726209_a_at) / Fold change /veh FAM211A (11726209_a_at) / RFU RGS16 (11746705_a_at) / Fold change /veh RGS16 (11746705_a_at) / RFU VCAN (11755009_s_at) / Fold change /veh VCAN (11755009_s_at) / RFU RHOB (11743442_s_at) / Fold change /veh RHOB (11743442_s_at) / RFU RGS16 (11720943_a_at) / Fold change /veh RGS16 (11720943_a_at) / RFU RGS16 (11720944_at) / Fold change /veh RGS16 (11720944_at) / RFU, VPS4B / Fold change vs veh, VPS4B / RFU, CREB1 / Fold change vs veh, CREB1 / RFU, DNAJC13 / Fold change vs veh, DNAJC13 / RFU, GNAQ / Fold change vs veh, GNAQ / RFU, CDK5R1 / Fold change vs veh, CDK5R1 / RFU, ZRANB3 / Fold change vs veh, ZRANB3 / RFU, CUL4A / Fold change vs veh, CUL4A / RFU, CCNY / Fold change vs veh, CCNY / RFU, UFL1 / Fold change vs veh, UFL1 / RFU, COG3 / Fold change vs veh, COG3 / RFU, DIAPH2 / Fold change vs veh, DIAPH2 / RFU, SKA2 / Fold change vs veh, SKA2 / RFU, AFF3 / Fold change vs veh, AFF3 / RFU, LMF1 / Fold change vs veh, LMF1 / RFU, IPO11 / Fold change vs veh, IPO11 / RFU, DFFB / Fold change vs veh, DFFB / RFU, FOXP1 / Fold change vs veh, FOXP1 / RFU, CARD8 / Fold change vs veh, CARD8 / RFU, STRN3 / Fold change vs veh, STRN3 / RFU, ADK / Fold change vs veh, ADK / RFU, RASSF2 / Fold change vs veh, RASSF2 / RFU, WIPF1 / Fold change vs veh, WIPF1 / RFU, LARP1B / Fold change vs veh, LARP1B / RFU, RASA1 / Fold change vs veh, RASA1 / RFU, RB1 / Fold change vs veh, RB1 / RFU, PPFIA1 / Fold change vs veh, PPFIA1 / RFU, MAT2A / Fold change vs veh, MAT2A / RFU, CCT5 / Fold change vs veh, CCT5 / RFU, WDR92 / Fold change vs veh, WDR92 / RFU, CUX1 / Fold change vs veh, CUX1 / RFU, TTC7A / Fold change vs veh, TTC7A / RFU, TMEM135 / Fold change vs veh, TMEM135 / RFU, DEPTOR / Fold change vs veh, DEPTOR / RFU, CPM / Fold change vs veh, CPM / RFU, DNAJB6 / Fold change vs veh, DNAJB6 / RFU, CACNA2D3 / Fold change vs veh, CACNA2D3 / RFU, DTX4 / Fold change vs veh, DTX4 / RFU, TFCP2 / Fold change vs veh, TFCP2 / RFU, GMCL1 /// GMCL1P1 / Fold change vs veh, GMCL1 /// GMCL1P1 / RFU, AEBP2 / Fold change vs veh, AEBP2 / RFU, SNHG1 /// SNORD22 /// SNORD25 /// SNORD26 /// SNORD27 /// SNORD28 /// SNORD29 /// SNORD31 / Fold change vs veh, SNHG1 /// SNORD22 /// SNORD25 /// SNORD26 /// SNORD27 /// SNORD28 /// SNORD29 /// SNORD31 / Fold change (Aza/veh), C12orf56 (ProbeSet 11735607_a_at) / Fold change (ACY-1035/veh), C12orf56 (ProbeSet 11735607_a_at) / Fold change (Aza/veh), FGFR1OP (ProbeSet 11751329_s_at) / Fold change (ACY-1035/veh), FGFR1OP (ProbeSet 11751329_s_at) / Fold change (Aza/veh), VPS36 (ProbeSet 11739960_a_at) / Fold change (ACY-1035/veh), VPS36 (ProbeSet 11739960_a_at) / RFU SYPL1 (11715823_x_at) / Fold change /veh SYPL1 (11715823_x_at) / RFU IGFBP7 (11715501_s_at) / Fold change /veh IGFBP7 (11715501_s_at) / RFU REEP3 (11722064_at) / Fold change /veh REEP3 (11722064_at) / RFU IGLL1 (11728026_x_at) / Fold change /veh IGLL1 (11728026_x_at): dose or concentration left out as unconfirmed
Conditions: ProbeSet 11723930_at; LIST D

Structure (SMILES): Nc1ccc(-c2cccs2)cc1NC(=O)c1ccc2c(c1)cc(C1CC1)n2CCN1CCOCC1 [ACY-1035]
- Fold change vs veh, CCT5: 0.85

Source: publication PMC5218480 (PLoS ONE, 2017)
